Source: patent US11613542B2, “Sulfonylureas and sulfonylthioureas as NLRP3 inhibitors” (Inflazome Limited, priority 2017, dated 2023)
Counter-ions that a name gives are not always drawn.

Experiments:
[1] = target: T1, NLRP3 (Homo sapiens, UniProt Q96P20); experiment: Human whole blood IL1β release assay; format: cell-based; parameters: Human whole blood in Li-heparin tubes was obtained from healthy donors; from tissue; host or cells: human whole blood from healthy donors, LPS-primed, nigericin-stimulated; conditions: human whole blood, 1 μg/ml LPS, compound 3 hrs, nigericin 10 μM 1 hr, IL-1β AlphaLisa; read-out: HWB IC50
Procedure: Human Whole Blood IL1β Release Assay
For systemic delivery, the ability to inhibit NLRP3 when the compounds are present within the bloodstream is of great importance. For this reason, the NLRP3 inhibitory activity of a number of compounds in human whole blood was investigated in accordance with the following protocol.
Human whole blood in Li-heparin tubes was obtained from healthy donors from a volunteer donor panel. • 1. Plate out 80 μl of whole blood containing 1 μg/ml of LPS in 96-well, clear bottom cell culture plate (Corning #3585) • 2. Add 10 μl compound (8 points half-log dilution with 10 μM top dose) or vehicle (DMSO 0.1% FAC) to the appropriate wells • 3. Incubate for 3 hrs at 37° C., 5% CO2 • 4. Add 10 μl Nigericin (Sigma #N7143) (10 μM FAC) to all wells • 5. Incubate for 1 hr at 37° C., 5% CO2 • 6. At the end of the incubation period, spin plates at 300 xg for 5 mins to pellet cells and remove 20 μl of supernatant and add to 96-well v-bottom plates for IL-1β analysis (note: these plates containing the supernatants can be stored at −80° C. to be analysed at a later date) • 7. IL-1β was measured according to the manufacturer protocol (Perkin Elmer-AlphaLisa IL-1 Kit AL220F-5000) • 8. IC50 data is fitted to a non-linear regression equation (log inhibitor vs response-variable slope 4-parameters)

[2] = target: T1, NLRP3; experiment: THP-1 cells pyroptosis assay; format: cell-based; parameters: Seed THP-1 cells (25,000 cells/well) containing 1.0 μg/ml LPS; host or cells: THP-1 cells, LPS-primed, nigericin-stimulated; conditions: THP-1 cells, 1.0 μg/ml LPS, compound 3 hrs, nigericin 5 μM 1 hr, resazurin readout; read-out: THP IC50
How it was run: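 THP-1 cells (25,000/well) in serum-free RPMI with 1.0 μg/ml LPS, treated with compound (8-point half-log dilution, 10 μM top, 0.1% DMSO), then nigericin 5 μM final. Viability read by resazurin (100 μM final, 1-2 h, 37° C) fluorescence Ex 560/Em 590 nm; IC50 from 4-parameter variable-slope fit.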

T1 sequence (Q96P20 whole entry): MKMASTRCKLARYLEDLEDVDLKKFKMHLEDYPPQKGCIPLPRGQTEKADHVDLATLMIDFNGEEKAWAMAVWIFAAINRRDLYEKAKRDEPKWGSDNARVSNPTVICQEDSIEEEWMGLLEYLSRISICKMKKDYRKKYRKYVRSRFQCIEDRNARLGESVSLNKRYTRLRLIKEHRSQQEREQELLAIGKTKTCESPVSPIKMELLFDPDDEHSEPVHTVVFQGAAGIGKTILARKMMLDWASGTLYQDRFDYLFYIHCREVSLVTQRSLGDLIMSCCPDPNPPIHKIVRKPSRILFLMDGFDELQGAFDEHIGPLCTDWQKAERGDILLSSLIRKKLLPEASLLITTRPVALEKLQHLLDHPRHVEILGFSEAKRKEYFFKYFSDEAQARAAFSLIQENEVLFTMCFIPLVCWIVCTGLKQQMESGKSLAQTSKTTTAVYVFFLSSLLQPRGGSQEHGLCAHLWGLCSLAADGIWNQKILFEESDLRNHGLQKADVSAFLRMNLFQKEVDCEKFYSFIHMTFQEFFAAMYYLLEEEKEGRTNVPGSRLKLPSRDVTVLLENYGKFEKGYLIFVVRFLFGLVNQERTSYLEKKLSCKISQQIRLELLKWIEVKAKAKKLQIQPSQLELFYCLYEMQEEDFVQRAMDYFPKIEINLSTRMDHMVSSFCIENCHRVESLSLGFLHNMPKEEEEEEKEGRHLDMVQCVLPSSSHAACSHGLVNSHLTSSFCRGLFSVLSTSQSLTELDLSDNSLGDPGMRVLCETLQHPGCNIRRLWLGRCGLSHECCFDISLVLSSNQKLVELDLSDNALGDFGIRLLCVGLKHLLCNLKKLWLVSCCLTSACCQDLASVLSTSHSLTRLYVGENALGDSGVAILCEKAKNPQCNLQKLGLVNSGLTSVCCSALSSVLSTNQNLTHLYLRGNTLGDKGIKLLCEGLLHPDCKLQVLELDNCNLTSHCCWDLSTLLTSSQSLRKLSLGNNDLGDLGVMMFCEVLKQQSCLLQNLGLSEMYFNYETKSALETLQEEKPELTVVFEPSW

| Structure (SMILES) | IC50 [1] [nM] | IC50 [2] [nM] |
| --- | --- | --- |
| COc1cc(-c2ccc3c(c2NC(=O)NS(=O)(=O)c2ccn(C(C)(C)C#N)n2)CCC3)ccn1 [Example 195, 1-(2-Cyanopropan-2-yl)-N-((5-(2-methoxypyridin-4-yl)-2,3-dihydro-1H-inden-4-yl)carbamoyl)-1H-pyrazole-3-sulfonamide, sodium salt] | < 400 | < 40 |
| CC(C)c1cccc(C(C)C)c1NC(=O)NS(=O)(=O)c1cc(C(=O)N2CC(F)C2)n(C)n1 [Example 139, N-((2,6-Diisopropylphenyl)carbamoyl)-5-(3-fluoroazetidine-1-carbonyl)-1-methyl-1H-pyrazole-3-sulfonamide, sodium salt] | < 1600 | < 2560 |
| CN(C)CC1(n2ccc(S(=O)(=O)NC(=O)Nc3c4c(cc5c3CCC5)CCC4)n2)CC1 [Example 202, 1-(1-((Dimethylamino)methyl)cyclopropyl)-N-((1,2,3,5,6,7-hexahydro-s-indacen-4-yl)carbamoyl)-1H-pyrazole-3-sulfonamide] | < 400 | < 160 |
| CC(C)c1cc(F)cc(-c2cccnc2)c1NC(=O)NS(=O)(=O)c1ccn(CCN(C)C)n1 [Example 30, 1-(2-(Dimethylamino)ethyl)-N-((4-fluoro-2-isopropyl-6-(pyridin-3-yl)phenyl)carbamoyl)-1H-pyrazole-3-sulfonamide] | < 800 | < 640 |
| CN(C)CC(C)(C)n1ccc(S(=O)(=O)NC(=O)Nc2c(-c3cccnc3)ccc3c2CCC3)n1 [Example 197, 1-(1-(Dimethylamino)-2-methylpropan-2-yl)-N-((5-(pyridin-3-yl)-2,3-dihydro-1H-inden-4-yl)carbamoyl)-1H-pyrazole-3-sulfonamide] | < 400 | < 640 |
| CN(C)Cc1c(S(=O)(=O)NC(=O)Nc2c3c(cc4c2CCC4)CCC3)ncn1C [Example 171, 5-((Dimethylamino)methyl)-N-((1,2,3,5,6,7-hexahydro-s-indacen-4-yl)carbamoyl)-1-methyl-1H-imidazole-4-sulfonamide] | < 1600 | < 640 |
| COc1cc(-c2cc(F)c3c(c2NC(=O)NS(=O)(=O)c2ccn(CCN(C)C)n2)CCC3)ccn1 [Example 29, 1-(2-(Dimethylamino)ethyl)-N-((7-fluoro-5-(2-methoxypyridin-4-yl)-2,3-dihydro-1H-inden-4-yl)carbamoyl)-1H-pyrazole-3-sulfonamide] | < 400 | < 40 |
| O=C(Nc1c2c(cc3c1CCC3)CCC2)NS(=O)(=O)c1ccn(C2CNC2)n1 [Example 14, 1-(Azetidin-3-yl)-N-((1,2,3,5,6,7-hexahydro-s-indacen-4-yl)carbamoyl)-1H-pyrazole-3-sulfonamide] | < 3200 | < 640 |
| COCCN(C)Cc1cc(S(=O)(=O)NC(=O)Nc2c3c(cc4c2CCC4)CCC3)nn1C [Example 126, N-((1,2,3,5,6,7-Hexahydro-s-indacen-4-yl)carbamoyl)-5-(((2-methoxyethyl)(methyl)amino)methyl)-1-methyl-1H-pyrazole-3-sulfonamide, sodium salt] | < 3200 | < 640 |
| CCN(C)C(=O)c1cc(S(=O)(=O)NC(=O)Nc2c(C(C)C)cc(F)cc2C(C)C)nn1C [Example 149, N-Ethyl-3-(N-((4-fluoro-2,6-diisopropylphenyl)carbamoyl)sulfamoyl)-N,1-dimethyl-1H-pyrazole-5-carboxamide, sodium salt] | < 800 | < 640 |
| CN(C(=O)c1cc(S(=O)(=O)NC(=O)Nc2c3c(cc4c2CCC4)CCC3)nn1C)C1CC1 [Example 152, N-Cyclopropyl-3-(N-((1,2,3,5,6,7-hexahydro-s-indacen-4-yl)carbamoyl)sulfamoyl)-N,1-dimethyl-1H-pyrazole-5-carboxamide] | < 800 | < 160 |
| O=C(Nc1c2c(cc3c1CCC3)CCC2)NS(=O)(=O)c1ccn(CCN2CCCC2)n1 [Example 3, N-((1,2,3,5,6,7-Hexahydro-s-indacen-4-yl)carbamoyl)-1-(2-(pyrrolidin-1-yl)ethyl)-1H-pyrazole-3-sulfonamide, sodium salt] | < 1600 | < 640 |
| CC(C)c1ccc(C(C)C)c(NC(=O)NS(=O)(=O)c2cc(C(=O)N(C)C)n(C)n2)c1 [Example 144, 3-(N-((2,5-Diisopropylphenyl)carbamoyl)sulfamoyl)-N,N,1-trimethyl-1H-pyrazole-5-carboxamide, sodium salt] | < 10000 | < 640 |
| COc1cc(-c2ccc3c(c2NC(=O)NS(=O)(=O)c2ccn(CCN(C)C)n2)CCC3)ccn1 [Example 26, 1-(2-(Dimethylamino)ethyl)-N-((5-(2-methoxypyridin-4-yl)-2,3-dihydro-1H-inden-4-yl)carbamoyl)-1H-pyrazole-3-sulfonamide] | < 400 | < 160 |
| CN(C)CCn1ccc(S(=O)(=O)NC(=O)Nc2c(-c3cccnc3)cc(F)c3c2CCC3)n1 [Example 28, 1-(2-(Dimethylamino)ethyl)-N-((7-fluoro-5-(pyridin-3-yl)-2,3-dihydro-1H-inden-4-yl)carbamoyl)-1H-pyrazole-3-sulfonamide] | < 3200 | < 640 |
| CNC(=O)c1cc(S(=O)(=O)NC(=O)Nc2c(C(C)C)cccc2C(C)C)nn1C [Example 155, 3-(N-((2,6-Diisopropylphenyl)carbamoyl)sulfamoyl)-N,1-dimethyl-1H-pyrazole-5-carboxamide] | < 800 | < 640 |

More lines, now with the values ahead:

| IC50 [1] [nM] | IC50 [2] [nM] | Structure (SMILES) |
| --- | --- | --- |
| < 1600 | < 640 | CN(C)C1(c2cc(S(=O)(=O)NC(=O)Nc3c4c(cc5c3CCC5)CCC4)nn2C)COC1 [Example 122, 5-(3-(Dimethylamino)oxetan-3-yl)-N-((1,2,3,5,6,7-hexahydro-s-indacen-4-yl)carbamoyl)-1-methyl-1H-pyrazole-3-sulfonamide] |
| < 800 | < 640 | CNCCn1ccc(S(=O)(=O)NC(=O)Nc2c3c(cc4c2CCC4)CCC3)n1 [Example 13, N-((1,2,3,5,6,7-Hexahydro-s-indacen-4-yl)carbamoyl)-1-(2-(methylamino)ethyl)-1H-pyrazole-3-sulfonamide] |
| < 800 | < 640 | C[C@H](CN(C)C)n1ccc(S(=O)(=O)NC(=O)Nc2c3c(cc4c2CCC4)CCC3)n1 [Example 198, (R)-1-(1-(Dimethylamino)propan-2-yl)-N-((1,2,3,5,6,7-hexahydro-s-indacen-4-yl)carbamoyl)-1H-pyrazole-3-sulfonamide] |
| < 1600 | < 640 | CN(C)C1(Cn2ccc(S(=O)(=O)NC(=O)Nc3c4c(cc5c3CCC5)CCC4)n2)CC1 [Example 11, 1-((1-(Dimethylamino)cyclopropyl)methyl)-N-((1,2,3,5,6,7-hexahydro-s-indacen-4-yl)carbamoyl)-1H-pyrazole-3-sulfonamide] |
| < 1600 | < 640 | CN(C)CCn1ncc(S(=O)(=O)NC(=O)Nc2c3c(cc4c2CCC4)CCC3)n1 [Example 199, 2-(2-(Dimethylamino)ethyl)-N-((1,2,3,5,6,7-hexahydro-s-indacen-4-yl)carbamoyl)-2H-1,2,3-triazole-4-sulfonamide] |
| < 3200 | < 160 | Cn1nc(S(=O)(=O)NC(=O)Nc2c3c(cc4c2CCC4)CCC3)cc1C(=O)N1CCC1 [Example 154, 5-(Azetidine-1-carbonyl)-N-((1,2,3,5,6,7-hexahydro-s-indacen-4-yl)carbamoyl)-1-methyl-1H-pyrazole-3-sulfonamide] |
| < 800 | < 640 | CN1CCC[C@@H]1Cn1ccc(S(=O)(=O)NC(=O)Nc2c3c(cc4c2CCC4)CCC3)n1 [Example 21, (R)—N-((1,2,3,5,6,7-Hexahydro-s-indacen-4-yl)carbamoyl)-1-((1-methylpyrrolidin-2-yl)methyl)-1H-pyrazole-3-sulfonamide] |
| < 3200 | < 640 | CN(C)CCn1cc(S(=O)(=O)NC(=O)Nc2c3c(cc4c2CCC4)CCC3)nn1 [Example 25, 1-(2-(Dimethylamino)ethyl)-N-((1,2,3,5,6,7-hexahydro-s-indacen-4-yl)carbamoyl)-1H-1,2,3-triazole-4-sulfonamide, sodium salt] |
| < 400 | < 160 | CC(C)(C#N)n1ccc(S(=O)(=O)NC(=O)Nc2c(-c3ccnc(OC(F)F)c3)ccc3c2CCO3)n1 [Example 189, 1-(2-Cyanopropan-2-yl)-N-((5-(2-(difluoromethoxy)pyridin-4-yl)-2,3-dihydrobenzofuran-4-yl)carbamoyl)-1H-pyrazole-3-sulfonamide] |
